Reference: patent publication US7781565B2 (priority 2006, dated 2010)
Entries after “also recorded” stand apart in the source; their conditions may differ.

These substances were tested on NCI-60 cell lines.
Assay type: cell-based, human

Row | Substance | Cell Line (NCI-60 cell line the peptide and its motif are associated with) | Cell Line (NCI-60 cell line the peptide is associated with) | Cell Line with which the peptide (and its tripeptide motif) is associated | Cell Line the peptide is associated with (peptide recovered from phage library selection on this NCI-60 cell line)
1 | AGSMMEF | OVCAR-3 Ovarian | – | – | –
2 | GAGSFSS | SK-MEL-2 Melanoma | – | – | –
3 | GLGAVGW | – | HT-29 Colon | – | –
4 | LVRLVSL | IGROV1 Ovarian | – | – | –
5 | LQGAGIH | A498 Renal | – | – | –
6 | ARGSLRV | – | SNB-19 CNS; also recorded: SF-539 CNS | – | –
7 | VRLSGRA | – | SNB-19 CNS; also recorded: SF-539 CNS | – | –
8 | SSRMGLV | – | – | SR Leukemia | –
9 | SSGSSNG | – | – | K-562-Leukemia | –
10 | ACTGVSR | – | – | – | RXF393 Renal
11 | SFGVLSG | – | – | – | HS 578 T Breast
12 | RASIGIE | UACC 257 Melanoma | – | – | –
13 | EAGVRLN | OVCAR-4 Ovarian | – | – | –
14 | NGGRVLS | – | – | – | ACHN Renal
15 | ANAASSP | SK-MEL-5 Melanoma | – | – | –
16 | LCDAGPS | – | HCT-116 Colon | – | –
17 | AGATRGS | – | – | – | HS 578 T Breast
18 | RGVKLGD | – | SW620-Colon | – | –
19 | RVARGDR | – | KM-12C Colon | – | –
20 | GSGQLIP | M14 Melanoma | – | – | –
21 | FRFVRGS | – | – | – | HS 578 T Breast
22 | AARGLEA | – | COLO-205-Colon | – | –
23 | TRSSLTH | – | – | – | TK-10 Renal
24 | GRLAVVA | – | HT-29 Colon | – | –

Row | Substance | Cell Line (NCI-60 cell line the peptide and its motif are associated with) | Cell Line (NCI-60 cell line the peptide is associated with) | Cell Line with which the peptide (and its tripeptide motif) is associated | Cell Line the peptide is associated with (peptide recovered from phage library selection on this NCI-60 cell line)
25 | DTLASLR | – | HT-29 Colon | – | –
26 | MQGRVIV | SK-OV-3-3 Ovarian | – | – | –
27 | FWRGSVP | – | – | A549-Lung | –
28 | CQGLVLQ | – | – | K-562-Leukemia | –
29 | LFHTRSS | IGROV1 Ovarian | – | – | –
30 | EGSGVDC | – | – | RPMI-8226-Leukemia | –
31 | TWGRLGL | – | – | – | ACHN Renal
32 | LRGSVGR | SK-MEL-28 Melanoma | – | – | –
33 | HKLARGR | – | – | EKVX-Lung | –
34 | GGYWLRS | M14 Melanoma | – | – | –
35 | RVGRLGG | – | – | A549-Lung | –
36 | KSGSSVL | – | – | HL-60-Leukemia | –
37 | GGRSQEG | – | – | – | UO31 Renal
38 | VDLRSAF | – | – | – | ACHN Renal
39 | AVYVGRL | – | – | – | NCI/ADR-RES Breast
40 | LWLRSRE | UACC 257 Melanoma | – | – | –
41 | LRRSSFS | – | – | K-562-Leukemia | –
42 | LRVRYAV | – | – | H322-Lung | –
43 | FRAGVSH | – | HCT-116 Colon | – | –
44 | GGRVRGG | OVCAR-4 Ovarian | – | – | –
45 | ELWASLG | – | HT-29 Colon | – | –
46 | RGSLLWA | UACC 257 Melanoma | – | – | –
47 | LLLLSGS | – | – | – | RXF393 Renal
48 | LLRSHGV | – | SF-295 CNS | – | –

Row | Substance | Cell Line (NCI-60 cell line the peptide and its motif are associated with) | Cell Line (NCI-60 cell line the peptide is associated with) | Cell Line with which the peptide (and its tripeptide motif) is associated | Cell Line the peptide is associated with (peptide recovered from phage library selection on this NCI-60 cell line)
49 | GRGVLAF | – | KM-12C Colon | – | –
50 | GRVPTVV | – | KM-12C Colon | – | –
51 | VGRAGGL | – | – | – | MDA-MB-231 Breast
52 | RDGRGAG | – | SF-295 CNS | – | –
53 | LRAGGSY | IGROV1 Ovarian | – | – | –
54 | SYFRAGR | – | – | H23-Lung | –
55 | RVSSDPI | SK-OV-3-3 Ovarian | – | – | –
56 | YLAGGKA | IGROV1 Ovarian | – | – | –
57 | VARAVPC | – | – | Hop-92-Lung | –
58 | GSSACGA | – | U251 CNS | – | –
59 | GRLVWGL | – | HCT-116 Colon | – | –
60 | SNFYGSS | M14 Melanoma | – | – | –
61 | HSESAAV | – | – | Hop-62-Lung | –
62 | QGGRSGV | – | – | – | A498 Renal
63 | RYGVGGL | – | HT-29 Colon | – | –
64 | VRAAGRV | – | – | Hop-62-Lung | –
65 | GLVSAFY | – | – | Hop-62-Lung | –
66 | FLLRSSF | – | – | SR Leukemia | –
67 | LQHLGSG | OVCAR-8 Ovarian | – | – | –
68 | GAVLTSC | – | – | – | BT-549 Breast
69 | AGSLSVF | – | – | CCRF-CEM Leukemia | –
70 | GAVLFRV | – | – | Hop-62-Lung | –
71 | LRVGXPG | – | – | – | NCI/ADR-RES Breast
72 | RREGLRS | OVCAR-3 Ovarian | – | H522-Lung | –

Row | Substance | Cell Line (NCI-60 cell line the peptide and its motif are associated with) | Cell Line (NCI-60 cell line the peptide is associated with) | Cell Line with which the peptide (and its tripeptide motif) is associated | Cell Line the peptide is associated with (peptide recovered from phage library selection on this NCI-60 cell line)
73 | SGVSRGQ | – | – | Hop-92-Lung | –
74 | VMWVARG | – | KM-12C Colon | – | –
75 | SPGVSGR | – | SW620-Colon | – | –
76 | RAVERVA | – | – | – | CAIK-1 Renal
77 | LSRGSVA | M14 Melanoma | – | – | –
78 | SAGVSDS | SK-MEL-2 Melanoma | – | – | –
79 | GSVSHRR | SK-OV-3-3 Ovarian | – | – | –
80 | PGGLVPG | – | HT-29 Colon | – | –
81 | VGSVVGR | – | – | Hop-92-Lung | –
82 | LVPLVSG | SK-OV-3-3 Ovarian | – | – | –
83 | ARYSLRS | 786-0 Renal | – | – | –
84 | AVSGRGW | – | – | Molt-4-Leukemia | –
85 | HGGRARL | – | HT-29 Colon | – | –
86 | VSGSGTA | PC3 Prostate | – | – | –
87 | GSVFGTP | – | – | – | UO31 Renal
88 | SVVLAGS | – | LOX-IMVI Melanoma | – | –
89 | AGRPRAT | – | HCT-116 Colon | – | –
90 | GRLYYYR | – | – | RPMI-8226-Leukemia | –
91 | HNGRLEV | – | – | Hop-62-Lung | –
92 | HGGPGAV | – | LOX-IMVI Melanoma | – | –
93 | GGVRLGG | PC3 Prostate | – | – | –
94 | AVYRAGR | – | – | H522-Lung | –
95 | PRGRLFD | – | HT-29 Colon | – | –
96 | YNRSAGL | – | – | CCRF-CEM Leukemia | –
